The values that follow come from patent publication US9187507B2 (Institute of Pharmacology and Toxicology Academy of …, priority 2009, dated 2015).

For data set [1] the following is noted: human body, after MCC-478; cited from earlier work.
Data set [2] in a line: Cytotoxicity by MTT method. The format is cell-based. Particulars: human; Hep G2 cells; MTT on the 3rd day of adding drugs; absorption at 540 nm. As to the method: The cytotoxicity of the desired compounds were measured by MTT method: Hep G2 cells were cultured in a DMEM culture medium containing 10% bovine calf serum, incubated in a 5% CO2 incubator, then the cells were inoculated in 96-well plate, cell count 5×10^4, continuously cultured for 3 days, added with new culture media with different drug concentrations, in which 3 parallel wells were set; on the 3rd day of adding drugs, MTT was added to 7.5 mg/ml, the culture was kept for further 2 h, the supernatant was discarded, isopropanol containing 10% […] was added, 120 μl/well, then added 0.4 μl/well again, enzyme-linked meter was used to measure the absorption at 540 nm, calculate 50% inhibition concentration, i.e., CC50 value.
Background: Tetrazolium assays rely on reduction of a dye to a coloured formazan, in cell work by metabolically active cells.

For data set [3], the system named is HBV DNA. The data set can be described thus: Test of in vitro activity against HBV: inhibition of HBV DNA in Hep G 2.2.15 cells by quantitative real-time fluorescent PCR. Type of data set: cell-based. Particulars: Hepatitis B virus, HepG2.2.15. As to the method:
By an in vitro test method of using Hep G 2.2.15 cells, the inhibition effects and cytotoxicity of the desired compounds to HBV DNA were measured.
By using quantitative and real-time fluorescent PCR method, the inhibition effects of the desired compounds to HBV DNA were measured: Hep G 2.2.15 cells were cultured in a DMEM culture medium containing 10% bovine calf serum, incubated in a 5% CO2 incubator, then the cells were inoculated in 96-well plate, cell count 3×10^4, continuously cultured, when the cell density reached about 80%, the used culture medium was discarded, and new culture media with different drug concentrations were added, in which 3 parallel wells were set; the culture media were exchanged every three days. On the 10th day of using drug, 100 μl of supernatant was taken and measured to determine HBV DNA content by quantitative PCR method, calculate 50% inhibition concentration, i.e., IC50 value.

Data set [4] deals with other retro viruses such as HIV and HSV. Particulars: cited from earlier work.
The test system of data set [5] is HBV. Particulars: anti-HBV, cited from earlier work.
Data set [6] concerns HBV strains with resistance to lamivudine. Particulars: cited from earlier work.
Data set [7] has as its system hepatitis B virus. Particulars: clinical; cited from earlier work.

Read-outs that look alike come from different tables or passages of the source.

One may read the CC50 as the concentration giving 50% cytotoxicity. One may read the IC50 as the concentration that gives 50% inhibition.

Regarding `COc1ccc(Sc2nc(N)nc3c2ncn3CCOCP(=O)(O)O)cc1` [Compound 602076, 2-amino-6-(4-methoxyphenylthio)-9-(2-phosphonomethoxyethyl)-purine], the “concentration of the free acid 602076 in blood relative to that of the monoester 602074” value in data set [1] was 1/10.
As for `COc1ccc(Sc2nc(N)nc3c2ncn3CCOCP(=O)(OCOC(=O)C(C)C)OCOC(=O)C(C)C)cc1` [Compound I2], in data set [2], the CC50 at 3 days is above 1000 µM. In data set [3], this compound returned an IC50 of 0.02 µM.
Taken in the same sequence, the figures for `COc1ccc(Sc2nc(N)nc3c2ncn3CCOCP(=O)(OCOC(=O)C(C)(C)C)OCOC(=O)C(C)(C)C)cc1` [Compound I3] were above 1000 µM and 0.015 µM.
Taken in the same sequence, the figures for `COc1ccc(Sc2nc(N)nc3c2ncn3CCOCP(=O)(OCOC(=O)C2CCCCC2)OCOC(=O)C2CCCCC2)cc1` [Compound I4] were above 1000 µM and 0.012 µM.
Compound `COc1ccc(Sc2nc(N)nc3c2ncn3C[C@@H](C)OCP(=O)(OCOC(=O)C(C)(C)C)OCOC(=O)C(C)(C)C)cc1` [Compound I5] displayed a CC50 at 3 days in data set [2] above 1000 µM. In data set [3], this compound had a half-inhibitory concentration (IC50) of 0.006 µM.
`COc1ccc(Sc2nc(N)nc3c2ncn3CCOCP(=O)(OCOC(=O)OC(C)C)OCOC(=O)OC(C)C)cc1` [Compound I8] returned a CC50 at 3 days in data set [2] above 1000 µM. Also, the IC50 in data set [3] stood at 0.005 µM.
As to `COc1ccc(Sc2nc(N)nc3c2ncn3CCOCP(=O)(OCOC(=O)OCC(C)C)OCOC(=O)OCC(C)C)cc1` [Compound I9], the CC50 at 3 days in data set [2] is above 1000 µM. In addition, in data set [3], the midpoint of inhibition, the IC50, lay at 0.021 µM.
The compound `COc1ccc(Sc2nc(N)nc3c2ncn3CCOCP(=O)(OCOC(=O)OC2CCCCC2)OCOC(=O)OC2CCCCC2)cc1` [Compound I12] had a CC50 at 3 days in data set [2] above 1000 µM. In addition, in data set [3], half-maximal inhibition (IC50) required 0.011 µM.
Consider `COc1ccc(Sc2nc(N)nc3c2ncn3C[C@@H](C)OCP(=O)(OCOC(=O)OC(C)C)OCOC(=O)OC(C)C)cc1` [Compound I13], for which the CC50 at 3 days in data set [2] was above 1000 µM. In data set [3], this compound showed an IC50 of 0.054 µM.
`COc1ccc(Sc2nc(N)nc3c2ncn3CCOCP(=O)(OCC(F)(F)F)OCC(F)(F)F)cc1` [MCC-478] gave a CC50 at 3 days in data set [2] above 1000 µM. Also, the half-maximal inhibitory concentration (IC50) in data set [3] (Hep G 2.2.15 cells, HBV DNA content in supernatant by quantitative PCR on the 10th day of using drug, read-out: IC50) was 0.016 µM. For the same compound, in data set [4], the “activity against other retro viruses such as HIV and HSV” value is “no activity”. Also, in data set [5] (relative to adefovir), the “in vitro activity, times that of adefovir” value was 10-20 times. The “in vitro activity, times that of lamivudine” value in data set [5] (relative to lamivudine) is listed as 20-80 times. In addition, in data set [6], the “inhibition effects on HBV strains with resistance to lamivudine” value is “has inhibition effects”.
As for interferon, the “effective rate of treatment” value in data set [7] is 30-50%.
